In US5856175A, “Device for detecting microorganisms” (priority 1996, dated 1999):
Where two headings read alike, the source gives them in different places.

Assays:
Format in all cases: cell-based
[1] = test system: Staphylococcus aureus 25923; experiment: Antimicrobial susceptibility pattern using silicone-emulsion CO2 sensors (Table 4)
Text: (§1) Microtiter plates (96 flat bottom wells) containing 0.05% Xylenol blue silicone-emulsion sensors on the bottom were filled with 100 microliters of microbial growth medium containing no antibiotics (growth control wells) and nine different classes of antibiotics. Final concentrations of the antibiotics were achieved after addition of 100 microliters of inoculum (final inoculum of 5×10^7 CFU/ml) of the representative microorganisms. The concentrations of antibiotics used represent those used in determining if the test organism is sensitive, intermediate, or resistant to a particular antibiotic.
(§2) After inoculating the microtiter tray, it was sealed with a pressure sensitive plastic plate sealer and initial readings were taken with a reflectance reader. The plate was then placed into a 37° C. incubator. After four hours incubation, the plate was removed and final reflectance readings were taken.
(§3) The results in Table 4 show a pattern of growth, no growth, or intermediate growth of the four test organisms with the nine classes of antibiotics. This is indicative of the type of susceptibility of the organisms to the antibiotics. The organisms tested vary in their susceptibility pattern because of differences in their physiological makeup.

[2] = test system: Pseudomonas aeruginosa 27853; experiment: as above
Text: as §1, §2, §3

Escherichia coli 29194 = experiment: as above
Text: as §1, §2, §3

[3] = test system: Streptococcus faecalis 29212; experiment: as above
Text: as §1, §2, §3

Escherichia coli 33582 = experiment: Pattern of inhibition using silicone-emulsion CO2 sensors (Table 3); settings: 5.4 mcg; 4 h, 37° C.; 5×10^7 CFU/ml
Text: (§4) Microbial identification using the described CO2 sensors can also be based on the principle of growth inhibition. This system differs from the classical biochemical identification systems, as identification is based on selective growth inhibition by inhibitory agents, such as dyes, antibiotics, and other substances. Once again, the production of CO2 is the measure of growth. The growth pattern produced in the presence of these inhibitory agents identifies the species of the test microorganism. The amount of growth is compared with a growth control well that contains no inhibitor. A profile is derived using a two-stage quadratic discriminate analysis based on the results derived from the battery of inhibitory agents.
(§5) Microtiter plates (96 flat bottom wells) containing 0.05% xylenol blue silicone-emulsion sensors were filled with 100 microliters of microbial growth medium containing no inhibitors (growth control wells) and eighteen different dyes, antibiotics, and other inhibitory substances. Final concentrations of the inhibitors were achieved after addition of 100 microliters of inoculum (final inoculum of 5×10^7 CFU/ml) of the representative microorganisms.
as §2

[4] = test system: Alcaligenes odorans 33585; experiment: as above; settings: 5.4 mcg; 4 h, 37° C.; 5×10^7 CFU/ml
Text: as §4, §5, §2

Proteus mirabilis 33583 = experiment: as above; settings: 5.4 mcg; 4 h, 37° C.; 5×10^7 CFU/ml
Text: as §4, §5, §2

[5] = test system: Pseudomonas aeruginosa 33584; experiment: as above; settings: 5.4 mcg; 4 h, 37° C.; 5×10^7 CFU/ml
Text: as §4, §5, §2

[6] = test system: Pseudomonas aeruginosa (ATCC number 1014); experiment: Carbon source utilization in carbon dioxide sensor plates (Example 6); settings: 0.5% bromosuccinic acid
Method: (§6) 50 ml Kodak Universal Indicator was evaporated to dryness and resuspended in 2 ml HPCL grade isopropanol. 240 mg of phenolphthalein, sodium salt, dissolved in 2 ml of water was added to 1 ml of the concentrated Universal Indicator solution. 150 microliters of CAPS buffer (3-{cyclohexlamino}-1-propanesulfonic acid), pH 10.4, 500 mM was mixed with the phenolphthalein/Universal Indicator solution. This solution was added to 10 grams of GE RTV 615 A silicone that had been degassed for approximately 15 minutes. The silicone and indicator emulsion was mixed by hand stirring. 0.1 grams of white silicone pigment and 2 grams of GE RTV 615 B was added to the mixture. The mixture was hand mixed and degassed for approximately 5 minutes. The emulsion was transferred into a pressurized syringe dispenser fitted to an "air brush" sprayer and sprayed into a polystyrene 24 well plate that had previously been sprayed with 2 coats of GE silicone primer SS 4120. Enough of the indicator/silicone emulsion was sprayed into the wells to coat the bottom surface. The plate was then placed in a humidified oven and cured at 50° C. overnight. This spraying process was repeated on 3 consecutive days for a total of 3 coatings to the wells.
(§7) Two organisms, Escherichia coli (ATCC number 11775) and Pseudomonas aeruginosa (ATCC number 1014), both type strains, were grown overnight (17 hours) in a complex medium as described in Example 3 C, at 37° C., with shaking. The organisms were harvested, spun down at 11950-X-g, at 4° C. for 20 minutes. The supernatant was poured off and the organisms were resuspended in 0.9% sterile saline to an OD600 =5.0.
(§8) Each well of the prepared microtiter plate contained 1 ml of one of the following three media:
(§9) a) a minimal medium buffered with 50 mM Hepes buffer, pH 7.2, containing no carbon source (the negative control);
(§10) b) the same medium as the negative control except that it contained 0.5% bromosuccinic acid; and
(§11) c) an undefined medium Trypticase soy yeast extract medium, buffered with 50 mM Hepes, pH 7.2 (the positive control).
(§12) Twenty microliters of each prepared organism was added to duplicate wells of each type of media.
(§13) The wells were sealed with cork stoppers and the plate was incubated at 37° C. Color changes of the sensor on the bottom of the plate were monitored by eye over a 6 hour period. After approximately 4 hours, two distinct patterns could be seen. […] The positive control wells for E. coli changed from purple to green to yellow to orange, indicating a pH change of the sensor from 10 to approximately 6. The positive control well for P. aeruginosa changed from purple to green to yellow (a pH change of the sensor from 10 to approximately 7). The wells with the bromosuccinic acid medium gave the most distinction between the two organisms. […]

[7] = test system: Escherichia coli (ATCC number 11775); experiment: as above; settings: 0.5% bromosuccinic acid
Method: as §6, §7, §8, §9, §10, §11, §12, §13

[8] = Staphylococcus aureus, 25923, 4 h, read-out: Percent growth as compared to a growth control without antibiotics
[9] = Pseudomonas aeruginosa, 27853, 4 h, read-out: Percent growth as compared to a growth control without antibiotics
[10] = Escherichia coli, 29194, 4 h, read-out: Percent growth as compared to a growth control without antibiotics
[11] = Enterococcus faecalis, 29212, 4 h, read-out: Percent growth as compared to a growth control without antibiotics
[12] = 0.2 units, 4 h, 37° C., 5×10^7 CFU/ml

`NC[C@H]1O[C@H](O[C@H]2[C@H](O)[C@@H](O[C@H]3O[C@H](CO)[C@@H](O)[C@H](N)[C@H]3O)[C@H](N)C[C@@H]2N)[C@H](O)[C@@H](O)[C@@H]1O` [Kanamycin] showed an activity at 22 µg/mL [1, 8] of 13%, an activity at 22 µg/mL [2, 9] of 72% and an activity at 22 µg/mL (Escherichia coli 29194; [10]) of 91%. The activity at 22 µg/mL [3, 11] was 95%, the “Percent growth as compared to a growth control without antibiotics” value (Escherichia coli 33582) was 66% and the “Percent growth as compared to a growth control without antibiotics” value [4] was 95%. For the same compound, the “Percent growth as compared to a growth control without antibiotics” value (Proteus mirabilis 33583) was 44% and the “Percent growth as compared to a growth control without antibiotics” value [5] was 105%.
`CN(C)C1C(=O)C(C(N)=O)=C(O)C2(O)C(=O)C3=C(O)c4c(O)cccc4C(C)(O)C3CC12` (stereo not shown) [Tetracycline] showed an activity at 0.5 µg/mL [1, 8] of 15%, an activity at 0.5 µg/mL [2, 9] of 120% and an activity at 0.5 µg/mL (Escherichia coli 29194; [10]) of 76%. The activity at 0.5 µg/mL [3, 11] was 109%.
Work on `O=C1CN(/N=C/c2ccc([N+](=O)[O-])o2)C(=O)N1` [Nitrofurantoin] yielded an activity at 15 µg/mL ([1]; Staphylococcus aureus, 25923, 15 mcg (per milliliter), 4 h, 37° C., 5×10^7 CFU/ml, read-out: Percent growth as compared to a growth control without antibiotics) of 33%, an activity at 15 µg/mL ([2]; Pseudomonas aeruginosa, 27853, 15 mcg (per milliliter), 4 h, 37° C., 5×10^7 CFU/ml, read-out: Percent growth as compared to a growth control without antibiotics) of 112% and an activity at 15 µg/mL (Escherichia coli 29194; Escherichia coli, 29194, 15 mcg (per milliliter), 4 h, 37° C., 5×10^7 CFU/ml, read-out: Percent growth as compared to a growth control without antibiotics) of 14%. For the same compound, the activity at 15 µg/mL ([3]; Enterococcus faecalis, 29212, 15 mcg (per milliliter), 4 h, 37° C., 5×10^7 CFU/ml, read-out: Percent growth as compared to a growth control without antibiotics) was 110%.
`CN[C@H](CC(C)C)C(=O)N[C@H]1C(=O)N[C@@H](CC(N)=O)C(=O)N[C@H]2C(=O)N[C@H]3C(=O)N[C@H](C(=O)N[C@H](C(=O)O)c4cc(O)cc(O)c4-c4cc3ccc4O)[C@H](O)c3ccc(c(Cl)c3)Oc3cc2cc(c3O[C@@H]2O[C@H](CO)[C@@H](O)[C@H](O)[C@H]2O[C@H]2C[C@](C)(N)[C@H](O)[C@H](C)O2)Oc2ccc(cc2Cl)[C@H]1O` [Vancomycin] showed an activity at 10 µg/mL [1, 8] of 22%, an activity at 10 µg/mL [2, 9] of 106% and an activity at 10 µg/mL (Escherichia coli 29194; [10]) of 94%. The activity at 10 µg/mL [3, 11] was 15%.
`O=C(N[C@H](CO)[C@H](O)c1ccc([N+](=O)[O-])cc1)C(Cl)Cl` [Chloramphenicol] gave an activity at 4 µg/mL [1, 8] of 45%, an activity at 4 µg/mL [2, 9] of 88% and an activity at 4 µg/mL (Escherichia coli 29194; Escherichia coli, 29194, 4 mcg (per milliliter), 4 h, 37° C., 5×10^7 CFU/ml, read-out: Percent growth as compared to a growth control without antibiotics) of 14%. The activity at 4 µg/mL [3, 11] was 19%.
`O=C(O)CC(Br)C(=O)O` (stereo not shown) [bromosuccinic acid] was tested, and the “Utilization as carbon source to produce CO2” value [6] was “preferred carbon source”, the “pH of the sensor reached (change from 10)” value ([6]; four hours, 37° C., by eye) was “approximately 6 pH” and the “Utilization as carbon source to produce CO2” value [7] was “able to utilize this carbon source only slightly to produce CO2”. The “pH of the sensor reached (change from 10)” value ([7]; four hours, 37° C., by eye) was 8.5 pH.
`CC1(C)S[C@@H]2[C@H](NC(=O)Cc3ccccc3)C(=O)N2[C@H]1C(=O)O` [Penicillin G] was tested, and the “Percent growth as compared to a growth control without antibiotics” value [1, 12] was 45%, the “Percent growth as compared to a growth control without antibiotics” value [2, 12] was 149% and the “Percent growth as compared to a growth control without antibiotics” value (Escherichia coli 29194; [12]) was 103%. The “Percent growth as compared to a growth control without antibiotics” value [3, 12] was 108%.
In the case of `CCn1cc(C(=O)O)c(=O)c2ccc(C)nc21` [Nalidixic acid], the activity at 15 µg/mL [1, 8] is reported as 80%, the activity at 15 µg/mL [2, 9] is reported as 109% and the activity at 15 µg/mL (Escherichia coli 29194; [10]) is reported as 18%. It also gave an activity at 15 µg/mL [3, 11] of 116%.
`COc1cccc(OC)c1C(=O)N[C@@H]1C(=O)N2[C@@H]1SC(C)(C)[C@@H]2C(=O)O` [Methicillin] was tested, and the activity at 5 µg/mL ([1]; Staphylococcus aureus, 25923, 5 mcg (per milliliter), 4 h, 37° C., 5×10^7 CFU/ml, read-out: Percent growth as compared to a growth control without antibiotics) was 16%, the activity at 5 µg/mL ([2]; Pseudomonas aeruginosa, 27853, 5 mcg (per milliliter), 4 h, 37° C., 5×10^7 CFU/ml, read-out: Percent growth as compared to a growth control without antibiotics) was 146% and the activity at 5 µg/mL (Escherichia coli 29194; Escherichia coli, 29194, 5 mcg (per milliliter), 4 h, 37° C., 5×10^7 CFU/ml, read-out: Percent growth as compared to a growth control without antibiotics) was 111%. It also gave an activity at 5 µg/mL ([3]; Enterococcus faecalis, 29212, 5 mcg (per milliliter), 4 h, 37° C., 5×10^7 CFU/ml, read-out: Percent growth as compared to a growth control without antibiotics) of 116%.
